Laboratory results as given in US6689773B2, “Uracil substituted phenyl sulfamoyl carboxamides” (BASF Aktiengesellschaft, priority 2000, dated 2004).

Experiments:
Assay type in all cases: in vivo
[1] = test system: ABUTH, Velvetleaf, Abutilon theophrasti, Medic.; test: Postemergence herbicidal evaluation (Example 147); conditions: rating scale 0-9, two to three weeks after treatment
Description: (§1) Seedling plants were grown in jiffy flats for about two weeks. The test compounds were dispersed in 80/20 acetone/water mixtures containing 1.0% SUN-IT®II, a methylated seed oil, in sufficient quantities to provide the equivalent of about 0.016 to 0.032 kg per hectare of active compound when applied to the plants through a spray nozzle operating at 40 psi for a predetermined time. After spraying, the plants were placed on greenhouse benches and were cared for in accordance with conventional greenhouse procedures. Approximately two to three weeks after treatment, the seedling plants were examined and rated according to the rating scale (0-9) set forth below. Where more than one test is involved for a given compound, the data are averaged. [table] The scale is based upon a visual observation of plant stand, vigor, malformation, size, chlorosis and overall plant appearance as compared with a control. Plant species employed in these evaluations are reported by header abbreviation, common name and scientific name. [table]

[2] = test system: ALOMY, Blackgrass, Alopecurus myosuroides; test: Postemergence herbicidal evaluation (Example 147); conditions: rating scale 0-9, two to three weeks after treatment
Description: as §1

[3] = test system: AMBEL, Ragweed, Common, Ambrosia artemiisifolia, L.; test: Postemergence herbicidal evaluation (Example 147); conditions: rating scale 0-9, two to three weeks after treatment
Description: as §1

[4] = test system: CHEAL, Lambsquarters, Chenopodium album, L. Common; test: Postemergence herbicidal evaluation (Example 147); conditions: rating scale 0-9, two to three weeks after treatment
Description: as §1

[5] = test system: DIGSA, Crabgrass, (Hairy) L, Digitaria sanguinalis, (L)Scop; test: Postemergence herbicidal evaluation (Example 147); conditions: rating scale 0-9, two to three weeks after treatment
Description: as §1

[6] = test system: ECHCG, Barnyardgrass, Echinochloa crusgalli, (L.)Beau; test: Postemergence herbicidal evaluation (Example 147); conditions: rating scale 0-9, two to three weeks after treatment
Description: as §1

[7] = test system: GLXMA, Soybean, Glycine max, (L.) Merr.; test: Postemergence herbicidal evaluation (Example 147); conditions: rating scale 0-9, two to three weeks after treatment
Description: as §1

[8] = test system: IPOHE, Morningglory, Ivyleaf, Ipomoea hederacea, (L)Jacq.; test: Postemergence herbicidal evaluation (Example 147); conditions: rating scale 0-9, two to three weeks after treatment
Description: as §1

[9] = test system: SETVI, Green foxtail, Setaria viridis, (L.)Beau; test: Postemergence herbicidal evaluation (Example 147); conditions: rating scale 0-9, two to three weeks after treatment
Description: as §1

[10] = test system: TRZAW, Winter wheat, Tritium Aestivum, L. (Winter); test: Postemergence herbicidal evaluation (Example 147); conditions: rating scale 0-9, two to three weeks after treatment
Description: as §1

[11] = test system: ZEAMX, Field corn, Zea mays L.; test: Postemergence herbicidal evaluation (Example 147); conditions: rating scale 0-9, two to three weeks after treatment
Description: as §1

[12] = test system: ABUTH, Velvetleaf, Abutilon theophrasti, Medic.; test: Preemergence herbicidal evaluation (Example 148); conditions: rating scale 0-9, two to four weeks after treatment
Description: (§2) The scale is based upon a visual observation of plant stand, vigor, malformation, size, chlorosis and overall plant appearance as compared with a control.
(§3) The herbicidal activity of the compounds of the present invention was evaluated by the following tests wherein the seeds of a variety of monocotyledonous and dicotyledonous plants were separately mixed with potting soil and planted on top of approximately one inch of soil in separate pint cups. After planting, the cups were sprayed with the selected aqueous acetone solution containing test compound in sufficient quantity to provide the equivalent of about 0.125 to 0.250 kg per hectare of test compound per cup. The treated cups were then placed on greenhouse benches, watered and cared for in accordance with conventional greenhouse procedures. From two to four weeks after treatment, the tests were terminated and each cup was examined and rated according to the rating system provided in Example 94. When more than one test was performed for a given compound, the data were averaged.

[13] = test system: ALOMY, Blackgrass, Alopecurus myosuroides; test: Preemergence herbicidal evaluation (Example 148); conditions: rating scale 0-9, two to four weeks after treatment
Description: as §2, §3

[14] = test system: AMBEL, Ragweed, Common, Ambrosia artemiisifolia, L.; test: Preemergence herbicidal evaluation (Example 148); conditions: rating scale 0-9, two to four weeks after treatment
Description: as §2, §3

[15] = test system: CHEAL, Lambsquarters, Chenopodium album, L. Common; test: Preemergence herbicidal evaluation (Example 148); conditions: rating scale 0-9, two to four weeks after treatment
Description: as §2, §3

[16] = test system: DIGSA, Crabgrass, (Hairy) L, Digitaria sanguinalis, (L)Scop; test: Preemergence herbicidal evaluation (Example 148); conditions: rating scale 0-9, two to four weeks after treatment
Description: as §2, §3

[17] = test system: ECHCG, Barnyardgrass, Echinochloa crusgalli, (L.)Beau; test: Preemergence herbicidal evaluation (Example 148); conditions: rating scale 0-9, two to four weeks after treatment
Description: as §2, §3

[18] = test system: GLXMA, Soybean, Glycine max, (L.) Merr.; test: Preemergence herbicidal evaluation (Example 148); conditions: rating scale 0-9, two to four weeks after treatment
Description: as §2, §3

[19] = test system: IPOHE, Morningglory, Ivyleaf, Ipomoea hederacea, (L)Jacq.; test: Preemergence herbicidal evaluation (Example 148); conditions: rating scale 0-9, two to four weeks after treatment
Description: as §2, §3

[20] = test system: SETVI, Green foxtail, Setaria viridis, (L.)Beau; test: Preemergence herbicidal evaluation (Example 148); conditions: rating scale 0-9, two to four weeks after treatment
Description: as §2, §3

[21] = test system: TRZAW, Winter wheat, Tritium Aestivum, L. (Winter); test: Preemergence herbicidal evaluation (Example 148); conditions: rating scale 0-9, two to four weeks after treatment
Description: as §2, §3

[22] = test system: XANST, Cocklebur, Xanthium strumariam; test: Preemergence herbicidal evaluation (Example 148); conditions: rating scale 0-9, two to four weeks after treatment
Description: as §2, §3

[23] = test system: ZEAMX, Field corn, Zea mays L.; test: Preemergence herbicidal evaluation (Example 148); conditions: rating scale 0-9, two to four weeks after treatment
Description: as §2, §3

How did the “Postemergence herbicidal rating ABUTH” value ([1]; rate 0.016 kg/ha) turn out when `COc1cccc(CN(C)S(=O)(=O)NC(=O)c2cc(-n3c(=O)cc(C(F)(F)F)n(C)c3=O)c(F)cc2Cl)c1` [Example 70] was run?
The value was 9.0.

What about the “Postemergence herbicidal rating ABUTH” value ([1]; rate 0.032 kg/ha) of the same compound?
Its value is 9.0.

And the “Postemergence herbicidal rating ALMOY” value ([2]; rate 0.016 kg/ha)?
Its value is 1.0.

And the “Postemergence herbicidal rating ALMOY” value ([2]; rate 0.032 kg/ha)?
The value was 1.0.

And the “Postemergence herbicidal rating AMBEL” value ([3]; rate 0.016 kg/ha)?
The value was 5.0.

And the “Postemergence herbicidal rating AMBEL” value ([3]; rate 0.032 kg/ha)?
The value was 7.0.

And the “Postemergence herbicidal rating CHEAL” value ([4]; rate 0.016 kg/ha)?
Its value is 6.0.

What about the “Postemergence herbicidal rating CHEAL” value ([4]; rate 0.032 kg/ha) of the same compound?
The value was 7.0.

And the “Postemergence herbicidal rating DIGSA” value ([5]; rate 0.016 kg/ha)?
The value was 2.0.

What about the “Postemergence herbicidal rating DIGSA” value ([5]; rate 0.032 kg/ha) of the same compound?
Its value is 3.0.

What about the “Postemergence herbicidal rating ECHCG” value ([6]; rate 0.016 kg/ha) of the same compound?
The value was 4.0.

And the “Postemergence herbicidal rating ECHCG” value ([6]; rate 0.032 kg/ha)?
The value was 8.0.

What about the “Postemergence herbicidal rating GLXMA” value ([7]; rate 0.016 kg/ha) of the same compound?
The value was 6.5.

What about the “Postemergence herbicidal rating GLXMA” value ([7]; rate 0.032 kg/ha) of the same compound?
The value was 7.5.

And the “Postemergence herbicidal rating IPOHE” value ([8]; rate 0.016 kg/ha)?
The value was 9.0.

And the “Postemergence herbicidal rating IPOHE” value ([8]; rate 0.032 kg/ha)?
The value was 9.0.

And the “Postemergence herbicidal rating SETVI” value ([9]; rate 0.016 kg/ha)?
Its value is 4.0.

What about the “Postemergence herbicidal rating SETVI” value ([9]; rate 0.032 kg/ha) of the same compound?
Its value is 5.0.

And the “Postemergence herbicidal rating TRZAW” value ([10]; rate 0.016 kg/ha)?
Its value is 4.5.

And the “Postemergence herbicidal rating TRZAW” value ([10]; rate 0.032 kg/ha)?
Its value is 5.0.

What about the “Postemergence herbicidal rating ZEAMX” value ([11]; rate 0.016 kg/ha) of the same compound?
Its value is 7.0.

And the “Postemergence herbicidal rating ZEAMX” value ([11]; rate 0.032 kg/ha)?
The value was 7.0.

What about the “Preemergence herbicidal rating ABUTH” value ([12]; rate 0.125 kg/ha) of the same compound?
The value was 9.0.

What about the “Preemergence herbicidal rating ABUTH” value ([12]; rate 0.25 kg/ha) of the same compound?
The value was 9.0.

And the “Preemergence herbicidal rating ALMOY” value ([13]; rate 0.125 kg/ha)?
Its value is 0.0.

What about the “Preemergence herbicidal rating ALMOY” value ([13]; rate 0.25 kg/ha) of the same compound?
Its value is 0.0.

What about the “Preemergence herbicidal rating AMBEL” value ([14]; rate 0.125 kg/ha) of the same compound?
The value was 9.0.

And the “Preemergence herbicidal rating AMBEL” value ([14]; rate 0.25 kg/ha)?
Its value is 9.0.

And the “Preemergence herbicidal rating CHEAL” value ([15]; rate 0.125 kg/ha)?
Its value is 8.0.

And the “Preemergence herbicidal rating CHEAL” value ([15]; rate 0.25 kg/ha)?
The value was 9.0.

And the “Preemergence herbicidal rating DIGSA” value ([16]; rate 0.125 kg/ha)?
The value was 2.0.

What about the “Preemergence herbicidal rating DIGSA” value ([16]; rate 0.25 kg/ha) of the same compound?
The value was 5.0.

And the “Preemergence herbicidal rating ECHCG” value ([17]; rate 0.125 kg/ha)?
The value was 2.0.

And the “Preemergence herbicidal rating ECHCG” value ([17]; rate 0.25 kg/ha)?
The value was 7.0.

What about the “Preemergence herbicidal rating GLXMA” value ([18]; rate 0.125 kg/ha) of the same compound?
Its value is 1.0.

What about the “Preemergence herbicidal rating GLXMA” value ([18]; rate 0.25 kg/ha) of the same compound?
Its value is 3.0.

What about the “Preemergence herbicidal rating IPOHE” value ([19]; rate 0.125 kg/ha) of the same compound?
Its value is 9.0.

What about the “Preemergence herbicidal rating IPOHE” value ([19]; rate 0.25 kg/ha) of the same compound?
Its value is 9.0.

What about the “Preemergence herbicidal rating SETVI” value ([20]; rate 0.125 kg/ha) of the same compound?
Its value is 3.0.

What about the “Preemergence herbicidal rating SETVI” value ([20]; rate 0.25 kg/ha) of the same compound?
The value was 5.0.

What about the “Preemergence herbicidal rating TRZAW” value ([21]; rate 0.125 kg/ha) of the same compound?
The value was 0.0.

What about the “Preemergence herbicidal rating TRZAW” value ([21]; rate 0.25 kg/ha) of the same compound?
Its value is 1.0.

What about the “Preemergence herbicidal rating XANST” value ([22]; rate 0.125 kg/ha) of the same compound?
The value was 8.0.

What about the “Preemergence herbicidal rating XANST” value ([22]; rate 0.25 kg/ha) of the same compound?
The value was 9.0.

And the “Preemergence herbicidal rating ZEAMX” value ([23]; rate 0.125 kg/ha)?
The value was 0.0.

What about the “Preemergence herbicidal rating ZEAMX” value ([23]; rate 0.25 kg/ha) of the same compound?
Its value is 0.0.
